Values of other authors as cited in patent publication US20240156825A1, “USE OF SELECTIVE VEGFR2 AND FGFR1 INHIBITORS” (Fountain Therapeutics Inc., priority 2022, published 2024).
Read-outs that look alike come from different tables or passages of the source.

Experiments:
VEGFR2 = VEGFR2 (Homo sapiens, UniProt P35968); conditions: reported IC50 to VEGFR2, read-out: VEGFR2 IC50_μM, cited from earlier work
any gene target = conditions: next lowest IC50 value to any gene target, read-out: Min IC50_μM, cited from earlier work
[1] = Table 3, selective inhibitors of VEGFR2

Sequence of VEGFR2 (P35968 20-1356, species assumed): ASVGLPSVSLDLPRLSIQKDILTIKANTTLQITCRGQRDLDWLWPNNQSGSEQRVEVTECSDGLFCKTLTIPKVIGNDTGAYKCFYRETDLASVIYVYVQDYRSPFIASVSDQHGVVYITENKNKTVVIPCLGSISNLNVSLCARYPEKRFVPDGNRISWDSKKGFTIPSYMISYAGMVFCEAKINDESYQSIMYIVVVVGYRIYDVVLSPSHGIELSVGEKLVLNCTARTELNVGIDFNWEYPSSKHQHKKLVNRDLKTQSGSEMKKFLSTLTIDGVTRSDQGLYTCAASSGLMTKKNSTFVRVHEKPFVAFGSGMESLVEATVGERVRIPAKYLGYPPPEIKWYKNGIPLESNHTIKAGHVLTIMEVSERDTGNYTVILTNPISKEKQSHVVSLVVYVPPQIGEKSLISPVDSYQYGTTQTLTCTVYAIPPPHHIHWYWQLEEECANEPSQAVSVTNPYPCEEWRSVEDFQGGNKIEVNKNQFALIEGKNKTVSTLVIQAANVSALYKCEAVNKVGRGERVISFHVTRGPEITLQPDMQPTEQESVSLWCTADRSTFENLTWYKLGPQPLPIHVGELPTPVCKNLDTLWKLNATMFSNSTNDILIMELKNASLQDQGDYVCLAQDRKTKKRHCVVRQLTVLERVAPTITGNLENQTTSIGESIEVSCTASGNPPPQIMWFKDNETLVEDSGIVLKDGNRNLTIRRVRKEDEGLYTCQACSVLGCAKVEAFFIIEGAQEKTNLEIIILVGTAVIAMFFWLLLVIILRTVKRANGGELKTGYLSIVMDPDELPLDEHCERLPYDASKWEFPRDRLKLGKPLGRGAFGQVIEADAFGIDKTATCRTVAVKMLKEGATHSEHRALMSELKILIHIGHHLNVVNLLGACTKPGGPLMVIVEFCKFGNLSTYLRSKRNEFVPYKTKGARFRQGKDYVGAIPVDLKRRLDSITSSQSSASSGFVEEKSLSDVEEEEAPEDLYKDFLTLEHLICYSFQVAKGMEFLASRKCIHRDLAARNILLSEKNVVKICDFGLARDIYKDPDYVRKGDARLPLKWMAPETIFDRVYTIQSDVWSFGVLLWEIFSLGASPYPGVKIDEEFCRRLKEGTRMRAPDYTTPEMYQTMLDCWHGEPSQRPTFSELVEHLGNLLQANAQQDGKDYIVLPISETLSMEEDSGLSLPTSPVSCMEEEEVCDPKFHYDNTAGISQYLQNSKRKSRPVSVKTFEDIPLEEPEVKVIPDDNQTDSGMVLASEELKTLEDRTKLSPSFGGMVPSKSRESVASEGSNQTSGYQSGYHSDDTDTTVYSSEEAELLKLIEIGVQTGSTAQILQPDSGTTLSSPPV

COc1cc2c(Nc3ccc(Br)cc3F)ncnc2cc1OCCC1CCNCC1 [compound 5329054]
IC50 (VEGFR2; [1]): 40 nM | IC50 (any gene target; Table 3): 40 nM

COc1cc2c(Nc3ccc(Cl)cc3F)ncnc2cc1OC[C@@H]1CCCN(C)C1 [compound 5329055]
IC50 (VEGFR2): 5 nM | IC50 (any gene target): 80 nM

COc1cc2c(Nc3ccc(Br)cc3F)ncnc2cc1OC[C@@H]1CCCN(C)C1 [compound 5329056]
IC50 (VEGFR2): 1 nM | IC50 (any gene target): 60 nM

COc1cc2c(Nc3ccc(Br)cc3F)ncnc2cc1OC[C@H]1CCCN(C)C1 [compound 5329057]
IC50 (VEGFR2): 10 nM | IC50 (any gene target): 40 nM

COc1cccc(-c2ccc3c(c2)NC(=O)/C3=C\c2[nH]c3c(c2CCC(=O)O)CCCC3)c1 [compound 5329169]
IC50 (VEGFR2): 70 nM | IC50 (any gene target): 100 nM

c1ccc(-c2cnn3cc(-c4ccc(OCCN5CCOCC5)cc4)cnc23)cc1 [compound 5329447]
IC50 (VEGFR2): 9 nM | IC50 (any gene target): 32 nM

OCCCNc1cncc(-c2cncc(Nc3cccc(Cl)c3)n2)c1 [compound 5330387]
IC50 (VEGFR2; [1]): 5 nM | IC50 (any gene target; Table 3): 5 nM

OCCCCNc1cncc(-c2cncc(Nc3cccc(Cl)c3)n2)c1 [compound 5330388]
IC50 (VEGFR2): 63 nM | IC50 (any gene target): 2360 nM

Clc1cccc(Nc2cncc(-c3cncc(NCCCn4cccn4)c3)n2)c1 [compound 5330391]
IC50 (VEGFR2): 93.3 nM | IC50 (any gene target): 326 nM

Clc1cccc(Nc2cncc(-c3cncc(NCCCn4cncn4)c3)n2)c1 [compound 5330392]
IC50 (VEGFR2): 67 nM | IC50 (any gene target): 153 nM

COc1ccccc1/C(C)=C/c1coc2nc(N)nc(N)c12 [compound 6477203]
IC50 (VEGFR2): 10300 nM | IC50 (any gene target): 12800 nM

COc1cc2c(Oc3ccc(Nc4ccc(C(C)(C)C)cc4)cc3)ccnc2cc1OCCNCCO [compound 9850161]
IC50 (VEGFR2; [1]): 69 nM | IC50 (any gene target; Table 3): 69 nM

COc1cc2c(Nc3ccc(Br)c(Cl)c3F)ncnc2cc1OC[C@@H]1CN2CCOC[C@H]2CO1 [compound 9937516]
IC50 (VEGFR2; [1]): 50 nM | IC50 (any gene target; Table 3): 50 nM

COc1cc2c(Nc3ccc(F)c(Cl)c3F)ncnc2cc1OC[C@H]1CN2CCOC[C@H]2CO1 [compound 10028639]
IC50 (VEGFR2; [1]): 50 nM | IC50 (any gene target; Table 3): 50 nM

COc1cc2c(Nc3ccc(Cl)c(Cl)c3F)ncnc2cc1OC[C@H]1CN2CCOC[C@H]2CO1 [compound 10029284]
IC50 (VEGFR2; [1]): 50 nM | IC50 (any gene target; Table 3): 50 nM

COc1cc2c(Nc3cc(Cl)c(Br)cc3F)ncnc2cc1OC[C@H]1CN2CCOC[C@H]2CO1 [compound 10030541]
IC50 (VEGFR2; [1]): 50 nM | IC50 (any gene target; Table 3): 50 nM

CC(C)(Nc1nc(NO)nc(Nc2ccc3ncsc3c2)n1)c1ccccc1 [compound 10249989]
IC50 (VEGFR2): 40 nM | IC50 (any gene target): 420 nM

COc1cc2c(Nc3ccc(Cl)c(Cl)c3)ncnc2cc1OC1C[C@@H]2CN(C)C[C@@H]2C1 (stereo partly shown) [compound 10253661]
IC50 (VEGFR2; [1]): 50 nM | IC50 (any gene target; Table 3): 50 nM

Cc1nc2cc(N(C)c3ccnc(Nc4cccc(S(N)(=O)=O)c4)n3)ccc2n1C [compound 10273854]
IC50 (VEGFR2): 17 nM | IC50 (any gene target): 9000 nM

COc1cc2c(Nc3cc(Cl)c(Cl)cc3F)ncnc2cc1OC[C@H]1CN2CCOC[C@H]2CO1 [compound 10346203]
IC50 (VEGFR2; [1]): 50 nM | IC50 (any gene target; Table 3): 50 nM

COc1cc2c(Nc3ccc(Br)c(Cl)c3F)ncnc2cc1OC[C@H]1CN2CCOC[C@H]2CO1 [compound 10370400]
IC50 (VEGFR2; [1]): 50 nM | IC50 (any gene target; Table 3): 50 nM

O=C1N/C=C/c2ccc(c(Br)c2)Oc2cc(cc(Br)c2O)CCNC(=O)/C(=N/O)Cc2ccc(c(Br)c2)Oc2cc(cc(Br)c2O)C/C1=N\O [compound 10396070]
IC50 (VEGFR2): 1300 nM | IC50 (any gene target): 1500 nM

COc1cc2c(Nc3ccc(Cl)c(Cl)c3)ncnc2cc1OCc1cscn1 [compound 10455540]
IC50 (VEGFR2; [1]): 50 nM | IC50 (any gene target; Table 3): 50 nM

COCCNC(=O)c1cccc2cc(Oc3ccnc4cc(OC)c(C(N)=O)cc34)ccc12 [compound 11224593]
IC50 (VEGFR2): 22 nM | IC50 (any gene target): 233 nM

COCCNC(=O)c1cccc2cc(Oc3ccnc4cc(OC)c(OC)cc34)ccc12 [compound 11362483]
IC50 (VEGFR2): 12 nM | IC50 (any gene target): 73 nM

COc1cc2nccc(Oc3ccc4c(NC(=O)c5cccc(C(F)(F)F)c5)nn(C)c4c3)c2cc1OC [compound 11398307]
IC50 (VEGFR2): 1 nM | IC50 (any gene target): 45 nM

COc1cc2nccc(Oc3ccc4c(C(N)=O)cccc4c3)c2cc1OC [compound 11474276]
IC50 (VEGFR2): 0.891 nM | IC50 (any gene target): 88 nM

COc1cc(C2=C(c3c[nH]c4ccccc34)C(=O)NC2=O)cc(OC)c1OC [compound 11530963]
IC50 (VEGFR2): 2.5 nM | IC50 (any gene target): 5 nM

O=C(NC1CC1)c1cc(NCc2cnc(Nc3ccccn3)s2)c(F)cc1F [compound 11632737]
IC50 (VEGFR2): 23 nM | IC50 (any gene target): 200 nM

COc1cc2nccc(Oc3ccc4c(C(=O)NC5CC5)cccc4c3)c2cc1C(N)=O [compound 11750694]
IC50 (VEGFR2): 0.37 nM | IC50 (any gene target): 185 nM

O=C(Nc1cccc(-c2cn3ccnc3c(NCc3ccncc3)n2)c1)Nc1cccc(C(F)(F)F)c1 [compound 11755812]
IC50 (VEGFR2): 33 nM | IC50 (any gene target): 35 nM

Cn1ccc2ncnc(Oc3ccc(NC(=O)Nc4cccc(C(F)(F)F)c4)c(F)c3)c21 [compound 15949613]
IC50 (VEGFR2): 0.033 nM | IC50 (any gene target): 15 nM

Cc1ccc(NC(=O)c2ccc(C(C)(C)C)s2)cc1Nc1nc2ccccc2n1-c1cc(N)ncn1 [compound 15949617]
IC50 (VEGFR2): 4 nM | IC50 (any gene target): 4 nM

Cc1ccc(NC(=O)c2cc(C3CC3)[nH]n2)cc1Nc1nc2ccccc2n1-c1cc(N)ncn1 [compound 15949619]
IC50 (VEGFR2): 48 nM | IC50 (any gene target): 50 nM

COc1ccc(Nc2ncc3c(n2)-c2ccccc2NC(=O)C3)cc1O [compound 16730105]
IC50 (VEGFR2): 73 nM | IC50 (any gene target): 640 nM

COc1cc2c(Nc3ccc(Cl)cc3F)ncnc2cc1OCCCN1CCN(C)CC1 [compound 21701597]
IC50 (VEGFR2): 20 nM | IC50 (any gene target): 50 nM

Cc1[nH]nc2cc(N(C)c3ccnc(Nc4cccc(S(N)(=O)=O)c4)n3)ccc12 [compound 21956341]
IC50 (VEGFR2): 0.6 nM | IC50 (any gene target): 700 nM

COc1cc2c(Nc3ccc(Br)cc3F)ncnc2cc1OC/C=C/CN1CCCC1 [compound 22478260]
IC50 (VEGFR2): 8 nM | IC50 (any gene target): 30 nM

COc1cc2c(Nc3ccc(Cl)cc3F)ncnc2cc1OC/C=C/CN1CCCC1 [compound 22478297]
IC50 (VEGFR2; [1]): 40 nM | IC50 (any gene target; Table 3): 40 nM

COc1cc2c(Nc3ccc(Cl)cc3F)ncnc2cc1OCC1CCN(C)CC1 [compound 23133320]
IC50 (VEGFR2): 15 nM | IC50 (any gene target): 50 nM

COc1cc2nccc(Oc3ccc4c(C(=O)NC5CCCC5)cccc4c3)c2cc1OC [compound 24822599]
IC50 (VEGFR2): 9 nM | IC50 (any gene target): 620 nM

COc1cc2nccc(Oc3ccc4c(C(=O)NC(C)C)cccc4c3)c2cc1OC [compound 24822600]
IC50 (VEGFR2): 5 nM | IC50 (any gene target): 190 nM

COc1cc2nccc(Oc3ccc4c(C(=O)NC(C)(C)C)cccc4c3)c2cc1OC [compound 24823091]
IC50 (VEGFR2): 1500 nM | IC50 (any gene target): 3700 nM

COc1cc2ncnc(Oc3ccc4c(C(=O)NC5CC5)cccc4c3)c2cc1OC [compound 24823093]
IC50 (VEGFR2): 2.88 nM | IC50 (any gene target): 360 nM

COc1cc2nccc(Oc3ccc4c(C(=O)NCC(F)(F)F)cccc4c3)c2cc1OC [compound 24823250]
IC50 (VEGFR2): 3.8 nM | IC50 (any gene target): 16 nM

COCCNC(=O)c1cccc2cc(Oc3ncnc4cc(OC)c(OC)cc34)ccc12 [compound 24823252]
IC50 (VEGFR2): 314 nM | IC50 (any gene target): 385 nM

COc1cc2nccc(Oc3ccc4c(C(=O)NC5CCC5)cccc4c3)c2cc1OC [compound 24824448]
IC50 (VEGFR2): 1.3 nM | IC50 (any gene target): 440 nM

COc1cc(C2=C(c3c[nH]c4ccccc34)CNC2=O)cc(OC)c1OC [compound 24894117]
IC50 (VEGFR2): 31 nM | IC50 (any gene target): 37 nM

COc1cc(C2=C(c3cn(COCC[Si](C)(C)C)c4ccccc34)CNC2=O)cc(OC)c1OC [compound 24894886]
IC50 (VEGFR2): 3100 nM | IC50 (any gene target): 4500 nM

COCn1cc(C2=C(c3cc(OC)c(OC)c(OC)c3)C(=O)NC2)c2ccccc21 [compound 24894887]
IC50 (VEGFR2): 2300 nM | IC50 (any gene target): 3200 nM

COc1cc(C2=C(c3cn(COC(C)(C)C)c4ccccc34)CNC2=O)cc(OC)c1OC [compound 24894992]
IC50 (VEGFR2; [1]): 4400 nM | IC50 (any gene target; Table 3): 4400 nM

COc1cc(C2=C(c3cn(COCc4ccccc4)c4ccccc34)CNC2=O)cc(OC)c1OC [compound 24894993]
IC50 (VEGFR2): 1600 nM | IC50 (any gene target): 1700 nM

COc1cc(C2=C(c3cn(COC(C)C)c4ccccc34)CNC2=O)cc(OC)c1OC [compound 24894996]
IC50 (VEGFR2): 5200 nM | IC50 (any gene target): 5300 nM

COc1cc(C2=C(c3cn(COc4ccccc4)c4ccccc34)CNC2=O)cc(OC)c1OC [compound 24894997]
IC50 (VEGFR2): 1500 nM | IC50 (any gene target): 1700 nM

C[C@@H](Nc1ncnc2[nH]c(-c3ccc(CN4CCN(CCCC(=O)NO)CC4)cc3)cc12)c1ccccc1 [compound 24900378]
IC50 (VEGFR2): 100 nM | IC50 (any gene target): 1000 nM

C[C@@H](Nc1ncnc2[nH]c(-c3ccc(CN4CCN(CCCCC(=O)NO)CC4)cc3)cc12)c1ccccc1 [compound 24900441]
IC50 (VEGFR2): 100 nM | IC50 (any gene target): 100 nM

C[C@@H](Nc1ncnc2[nH]c(-c3ccc(CN4CCN(CCCCCC(=O)NO)CC4)cc3)cc12)c1ccccc1 [compound 24900442]
IC50 (VEGFR2): 100 nM | IC50 (any gene target): 100 nM

C[C@@H](Nc1ncnc2[nH]c(-c3ccc(CN4CCN(CCCCCCC(=O)NO)CC4)cc3)cc12)c1ccccc1 [compound 24900443]
IC50 (VEGFR2): 100 nM | IC50 (any gene target): 100 nM

C[C@@H](Nc1ncnc2[nH]c(-c3ccc(OCCCC(=O)NO)cc3)cc12)c1ccccc1 [compound 24900506]
IC50 (VEGFR2): 100 nM | IC50 (any gene target): 100 nM

C[C@@H](Nc1ncnc2[nH]c(-c3ccc(OCCCCC(=O)NO)cc3)cc12)c1ccccc1 [compound 24900507]
IC50 (VEGFR2): 100 nM | IC50 (any gene target): 100 nM

C[C@@H](Nc1ncnc2[nH]c(-c3ccc(NC(=O)CCCC(=O)NO)cc3)cc12)c1ccccc1 [compound 24900574]
IC50 (VEGFR2): 100 nM | IC50 (any gene target): 100 nM

C[C@@H](Nc1ncnc2[nH]c(-c3ccc(C(=O)NCCNCCCCCC(=O)NO)cc3)cc12)c1ccccc1 [compound 24900641]
IC50 (VEGFR2): 100 nM | IC50 (any gene target): 100 nM
